The EC50 is the concentration that produces a half-maximal response. The viability is the share of living cells, or the viability signal relative to a control. As a reminder, the IC50 is the concentration that inhibits the measured activity by half.

This is an account of results in PMC4788259 (PLoS Neglected Tropical Diseases, 2016).

The subject of data set [1] is E. multilocularis metacestodes. The experiment in a line: Intraperitoneal treatment of secondary infected mice. The note with it: 4 weeks, MMV665807 100 mg/kg i.p. three times per week, ABZ 200 mg/kg p.o. 5 days per week. Type of data set: in vivo, BALB/c mice. Here is the method:
(§1) Animals were kept at a temperature-controlled 12/12 hours light cycle with food and water ad libitum and according to the Swiss Animal protection law. For the in vivo treatment of MMV665807, BALB/c mice (from Charles River, Sulzfeld, Germany), at the age of 8 weeks with an average body weight of 20 g, were i.p. infected with 200 μL metacestodes vesicle suspension. This material was prepared from in vitro-cultured metacestodes (strain H95), which were disintegrated by pressing the parasites through a 1 mL pipette tip. Parasite tissue was centrifuged at 500 x g for 5 min at room temperature before being mixed 1:1 in PBS.
I.p. drug treatments were initiated 2 weeks post-infection. 32 infected mice were randomly separated into 4 groups with 2 times 4 animals per cage. All animals were exposed to 4 weeks of treatment, with five consecutive days of drug application followed by a 2 day recovery period without treatment. Treatment groups were defined as follows: group 1 (control) received 50 μL of corn oil by gavage on 5 days per week, and an i.p. injection of DMSO in corn oil (4 μL DMSO and 46 μL corn oil) on three days per week; group 2 also received corn oil by gavage 5 days per week, and an i.p. injection of MMV665807 (100 mg/kg in 4 μL DMSO plus 46 μL corn oil) three times per week; group 3 was treated with the standard albendazole treatment (albendazole in corn oil, 200 mg/kg/ day for 5 days each week) and also received an i.p. injection of 4 μl DMSO suspended in 46 μl corn oil three times per week; group 4 received a combined treatment consisting of albendazole in corn oil by gavage (200 mg/kg/day 5 days per week) and an i.p. injection of MMV665807 (100 mg/kg three times per week). After 4 weeks of treatment, mice were euthanized and the parasite mass resected and measured as described above. Statistical analyses were performed as described above.

Data set [2] relates to E. multilocularis metacestodes. The data set is described as follows: Peroral treatment of secondary infected mice. The note with it: p.o. gavage 5 days per week, 4 weeks, MMV665807 100 mg/kg, ABZ 200 mg/kg. The format is in vivo, BALB/c mice. Here is the method:
as §1
Peroral (p.o.) drug treatments by gavage were initiated 6 weeks post-infection and performed as follows: group 1 received no treatment at all; group 2 received 100 μL corn oil containing 7.8 μL DMSO; group 3 mice were treated with 100 μL corn oil containing albendazole (ABZ) in 7.8 μL DMSO, in order to obtain a dosage of 200 mg/kg body weight (positive control); group 4 was treated with 100 μL corn oil containing MMV665807 in 7.8 μL DMSO, resulting in 100 mg/kg body weight. All mice were treated for a total time period of 4 weeks, with consecutive treatment during 5 days per week, and interruption of treatment for 2 days each week. At the end of the treatment, all mice were sedated by isoflurane and subsequently euthanized by CO2. All parasite tissue was resected, placed into a petri dish, and the parasite mass was weighed. Statistical analysis of the in vivo experiments was performed in R version 3.0.1. The data distribution was checked by Shapiro-Wilk test and eventual differences between treatment groups identified by the non-parametric Kruskal-Wallis test. P values were calculated by the non-parametric Wilcoxon […] test with Bonferroni-adjustment. Boxplot visualizations of the data were prepared in Microsoft Excel 2010.

Data set [3] concerns E. multilocularis metacestodes. The note with it: PGI assay; cited from earlier work.
The test system of data set [4] is E. multilocularis metacestode vesicles. The data set is described as follows: microbe, parasite or virus in culture. The note with it: Echinococcus multilocularis, 288 h, read-out: mean viability.
For data set [5], the system named is E. multilocularis germinal layer cells. The data set is described as follows: CellTiter-Glo viability assay on germinal layer cell cultures. Type of data set: cell-based. The settings on record: Echinococcus multilocularis, 120 h, 5 days, read-out: E.m. GL cells (IC50). The procedure: To assess the effects of MMV665807 on the viability of parasite cells, germinal layer cells were extracted according to Spiliotis et al. After overnight aggregate formation, 15 units of cells were distributed to a black 384 well plate (Nunc, Thermo Scientific, Reinach, Switzerland) in 12.5 μL medium. A concentration series (final concentrations of 3, 1, 0.3, 0.1, 0.03, 0.01 μM) of MMV665807, MMV665794 and mefloquine were prepared in medium and added 1:2 to the cells. For mefloquine, the concentration range was adjusted in a subsequent setup up to 100 μM. As negative control, DMSO was added accordingly. After 5 days of culture at 37°C under humid nitrogen atmosphere, 25 μL CellTiter-Glo (Promega, Dübendorf, Switzerland) including 1% TritonX-100 was added. Plates were incubated for 15 minutes on a shaker at room temperature and complete disruption of all cell aggregates was checked for before measurement of luminescence on a 2300 Enspire multilabel reader (Perkin-Elmer). Mean values and standard deviations were calculated and DMSO values set to 100% viability. The IC50 value was calculated in Microsoft Excel 2010 after logit-log transformation and averages as well as standard deviations of four independent setups were calculated.
(Cellular ATP, detected with luciferase, serves as a proxy for viable cell number.)

Data set [6] relates to E. multilocularis metacestodes. The data set is described as follows: PGI assay: phosphoglucose isomerase release from damaged metacestodes. Type of data set: cell-based, Echinococcus multilocularis. The note with it: 5 days; for activity in PGI assay at 1 μM: triplicates; for EC50: PGI assay, 10-0.01 μM. In short, it runs like this:
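Damage readout: PGI enzyme release after 5-day in vitro culture of 2–4 mm metacestode vesicles (H95 strain, from i.p.-infected BALB/c mice) with compound. Primary screen: 10 μM per single well, 0.1% DMSO negative control. EC50 calculated from PGI release data.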

Data set [7] has as its system newly transformed schistosomula. Also on record: method as in PMID 24416463. The note with it: in vitro; read-out: IC50 against newly transformed schistosomula; cited from earlier work.
Another data set has as its system adult worms. The arrangement: method as in PMID 24416463. The settings on record: in vitro; read-out: IC50 against adult worms; cited from earlier work.
The test system of another data set is S. mansoni. The arrangement: method as in PMID 24416463. The settings on record: cited from earlier work.
Data set [8] has as its system human foreskin fibroblasts (HFF). The data set is described as follows: alamarBlue viability assay on HFF. Type of data set: cell-based. The note with it: Fibroblast, 120 h, 5 days. Here is the method: (§2) For testing growth inhibitory effects on confluent host cells, cells were seeded in 96-well plates (10,000 cells per well for HFF and 50,000 cells per well for RH cells), in DMEM containing FBS (10%) and antibiotics (100 U penicillin, 100 μg streptomycin and 0.25 μg amphotericin B per mL medium) and were cultured overnight at 37°C, 5% CO2. Thereafter the drugs (10 μM) were added and diluted in a serial 1:2 dilutions down to 20 nM. The concentration range was further adjusted in subsequent setups. For testing growth inhibitory effects on proliferating cells, cells were seeded at 1,000 (HFF) and 5,000 (RH) cells per well, and were allowed to attach for 5 hours at 37°C before addition of the drugs. After 5 days of culture, cell viability was assessed by alamarBlue assay.
For orientation: Resazurin is reduced to fluorescent resorufin, in cell work by metabolically active cells.

In data set [9] the test system is Reuber rat hepatoma (RH) cells. The data set is described as follows: alamarBlue viability assay on RH cells. The format is cell-based. The settings on record: 120 h, 5 days. The procedure:
as §2

Several values for one entry are separate records, joined by “and”; a condition that tells them apart may be missing. Identical values can stand only once. Like-named read-outs stand apart in the source and are kept apart here. A value given as a limit tells only on which side of the number the result lay.

`CCCSc1ccc2nc(NC(=O)OC)[nH]c2c1` [ABZ, albendazole, reference compound]: the “parasite weight compared to placebo group” value in data set [1] (start 2 weeks post-infection) is “significantly lower”. The “adverse effects during treatment” value in data set [1] and in data set [2] was “No adverse effects” throughout. Further, the “parasite weight compared to control” value in data set [2] (start 6 weeks post-infection) was “significant reduction”.
Turning to `OC(c1cc(C(F)(F)F)nc2c(C(F)(F)F)cccc12)C1CCCCN1` (stereo not drawn) [Mefloquine, mefloquine, reference compound], in data set [3], the EC50 is over 30 µM. Further, in data set [4], the viability at 0.1 µM was 59.7%, the viability at 0.2 µM came to 74.3%, the viability at 0.4 µM came out at 67.9% and the viability at 0.8 µM turned out to be 70.9%. Further, in [4], the viability at 1.6 µM came to 75%, the viability at 3.1 µM amounted to 63.5%, the viability at 6.3 µM was 65.8% and the viability at 12.5 µM was found to be 79.4%. In addition, in data set [4], the viability at 25 µM was found to be 83.1%, the viability at 50 µM turned out to be 5.25% and the viability at 100 µM was 8.49%. The IC50 in [5] stood at 13.8 ± 0.33 µM.
With `Brc1ccc(Nc2nc3ccccc3nc2Nc2ccc(Br)cc2)cc1` [MMV007224], the “activity in PGI assay at 1 μM” value in data set [6] was “lost its activity”. Besides, the IC50 in data set [7] is over 33 µM; in the data set with adult worms, 800 nM.
For the compound `O=C(Nc1ccc(Cl)c(Cl)c1)Nc1ccc(Cl)c(Cl)c1` [MMV665852], the “activity in PGI assay at 1 μM” value in data set [6] is “no activity at all”. Also, in data set [6] (10 μM, single wells, relative to DB1127 (10 μM)), the “PGI (% of DB1127 at 10 uM)” value was 14.8% and 14.75%. In addition, the IC50 in [7] is 4.7 µM; in the data set with adult worms, 800 nM. In addition, the values for the worm burden reduction with S. mansoni (80 mg/kg), with S. mansoni (400 mg/kg) and in the data set with S. mansoni (4x100 mg/kg) were 46%, 52.5% and 31.2%, respectively.
Consider `FC(F)(F)c1cccc(Nc2nc3ccccc3nc2Nc2cccc(C(F)(F)F)c2)c1` [MMV665794], for which the EC50 is under 5000 nM in data set [6] (Echinococcus multilocularis, 120 h) and 2800 ± 530 nM in data set [6]. The IC50 in data set [7] was over 33.3 µM; with adult worms, 1100 nM; in [8] (confluent cells, read-out: Confluent HFF (IC50)) it was 21.5 ± 0.17 µM; in data set [8] (proliferating cells, read-out: Preconfluent HFF (IC50)) it was 5.9 ± 0.21 µM; in [9] (confluent cells, read-out: Confluent RH (IC50)), 800 ± 150 nM; in data set [9] (proliferating cells, read-out: Preconfluent RH (IC50)) it was 1100 ± 180 nM. In data set [5], the IC50 turned out to be 5.8 ± 0.16 µM.
